Consider 7 compounds from patent publication US20260028338A1, “HETEROBIFUNCTIONAL COMPOUNDS AND METHODS OF TREATING DISEASE” (Halda Therapeutics OpCo, Inc., priority 2023, published 2026).

The target in assay [1] is T1, His-tagged BRD4 BD1 (46-168) (Homo sapiens, UniProt O60885).
T1 construct: His-tagged BRD4 BD1 (46-168) and biotinylated histone H4K5/8/12/16(Ac) peptide
In words: AlphaLISA competition assay, BRD4 BD1. The assay is classed as binding. Particulars: BRD4-BD1, AlphaLISA competition with biotinylated histone H4K5/8/12/16(Ac) peptide, 10 nM. The method in brief: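 His-tagged BRD4 BD1 (46-168) and biotinylated H4K5/8/12/16(Ac) peptide, each 10 nM final, in 20 mM HEPES pH 7.5, 100 mM NaCl, 0.5 mM TCEP, 0.1% BSA, 0.02% CHAPS; compounds incubated 1 h at room temperature. Streptavidin acceptor and Ni-chelate donor beads added; IC50 from AlphaLISA signal.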

Another assay deals with Su-DHL-4 cell line. In words: Cellular growth inhibition assay, Su-DHL-4 cells (CellTiter-Glo). The assay is classed as cell-based. The settings on record: Homo sapiens; Su-DHL-4 cell line (DLBCL), 72 hours, CellTiter-Glo 2.0. As for the experimental part:
Exemplary compounds were tested for ability to inhibit the proliferation of Su-DHL-4 and Farage cells. Su-DHL-4 and Farage cells are commercially available diffuse large B cell lymphoma cell lines (DLBCL).
Su-DHL-4 and Farage cells were purchased from American Type Cell Culture (ATCC Cat #CRL-2957/CRL-2630) and then seeded on poly-D-lysine coated, black clear-bottom 384-well plates at 3000/well in 25 μL Roswell Park Memorial Institute media (RPMI-1640) supplemented with 10% w/w Fetal bovine serum (FBS) and 1% w/w Pen-Strep. Pen-Strep is a commercially available mixture of penicillin G and streptomycin, which is used in mammalian cell culture media to prevent bacterial contamination. Roswell Park Memorial Institute media (RPMI-1640) supplemented with 10% w/w fetal bovine serum (FBS), and 1% w/w Pen-Strep is herein referred to as Treatment Medium. Following seeding of cells in the plates, the plates were spun at 300×g for 30 seconds, then equilibrated to room temperature for 30 minutes, and then deposited in a humidified tissue culture incubator maintained at 37° C. with 5% CO2.
At 24 hours after seeding of the cells, dilutions of test compound were prepared in DMSO and dissolved in Treatment Medium, to achieve a final DMSO concentration of 0.5% w/w, thereby providing the Test Compound Solution. A 25 μL aliquot of the Test Compound Solution was added to cells in the well plates. An equal volume of a solution containing DMSO and Treatment Medium was used as a negative control. Following treatment of cells with Test Compound Solution or said equal volume of a solution containing DMSO and Treatment Medium, the plates were spun at 300×g for 30 seconds, and then left in an incubator for 72 hours.
At the end of the treatment duration, cell viability was quantified with CellTiter-Glo 2.0 reagent (Promega Cat #G9243). For this purpose, plates were equilibrated to room temperature for 30 minutes, and then 25 μL of CellTiter-Glo 2.0 reagent was added to cells in the plate wells. Plates were then agitated on a shaker for two minutes at 500 rpm and subsequently incubated at room temperature for 10 minutes. Following incubation, the plates were spun at 3000×g for 30 seconds, then sealed with an optical adhesive cover, and luminescence readings were measured with an EnVision Plate Reader (Perkin Elmer).
Data was normalized using zero luminescence for baseline. A four-parameter non-linear regression curve fit was applied to dose-response data in GraphPad Prism data analysis software to determine the half-maximal growth inhibitory concentration (GI50) for each test compound.

The subject of assay [2] is T-Rex 293 cell line SC cells lacking increased expression of BCL6 protein. In words: Cellular growth inhibition assay, T-Rex 293 SC cells without doxycycline (CellTiter-Glo). The assay is classed as cell-based. The settings on record: T-Rex 293 SC cells not exposed to doxycycline (no increased BCL6 expression), 72 hours, CellTiter-Glo 2.0.
The target in assay [3] is T2, His-tagged BRD4 BD2 (333-460) (Homo sapiens, UniProt O60885).
T2 construct: The same assay was developed for His-tagged BRD4 BD2 (333-460) and biotinylated histone H4K5/8/12/16(Ac) peptide
The assay is described as follows: AlphaLISA competition assay, BRD4 BD2. The assay is classed as binding. The settings on record: BRD4-BD2, AlphaLISA competition with biotinylated histone H4K5/8/12/16(Ac) peptide, 20 nM. The method in brief:
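His-tagged BRD4 BD2 (333-460) and biotinylated H4K5/8/12/16(Ac) peptide at 20 nM final, in 20 mM HEPES pH 7.5, 100 mM NaCl, 0.5 mM TCEP, 0.1% BSA, 0.02% CHAPS. Compounds incubated 1 h at room temperature, then streptavidin acceptor and nickel chelate donor beads added. IC50 derived from AlphaLISA signal.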

Assay [4] has as its target T3, biotinylated BCL6 (5-129) (Homo sapiens, UniProt P41182).
T3 construct: biotinylated BCL6 (5-129) was diluted in 10 mM HEPES pH 7.4; biotin (biotinylated)
The assay is described as follows: SPR assay for binding affinity to BCL6. Particulars: Biacore 8K, 25° C., immobilized biotinylated BCL6 (5-129). As for the experimental part: Exemplary compounds were tested for ability to bind to B-cell lymphoma 6 (BCL6) protein.
Binding studies by surface plasmon resonance (SPR) were performed using a Biacore 8K (Cytiva) instrument at 25° C. Briefly, biotinylated BCL6 (5-129) was diluted in 10 mM HEPES pH 7.4, 150 mM NaCl, 0.05% Surfactant P20, 0.5 mM TCEP, 3% DMSO to 1-5 μg/mL and was immobilized on an SA sensor chip (Cytiva, BR100032), resulting in surface densities at 1000-3000 resonance units (RUs). Test compounds were serially diluted five times in the same buffer and were injected to the immobilized surface. Kinetic determination experiments were performed using single-cycle kinetics with 110-120 s contact time, 1000-4000 s dissociation time, 30 μL/min flow rate. Binding data were analyzed by using Biacore insight evaluation software to determine KD values for test compounds.
(In general: SPR reads the build-up and loss of mass on a sensor chip optically.)

The subject of the next assay is Farage cell line. In words: Cellular growth inhibition assay, Farage cells (CellTiter-Glo). The settings on record: Farage cell line (DLBCL), 72 hours, CellTiter-Glo 2.0. The assay is classed as cell-based. The method in brief:
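DLBCL lines Su-DHL-4 and Farage were seeded at 3000 cells/well in RPMI-1640 with 10% FBS. Compound dilutions (final DMSO 0.5%) were added 24 h later and incubated 72 h at 37C. Viability was read by CellTiter-Glo 2.0 luminescence, and GI50 came from four-parameter fits.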

Assay [5] has as its system T-Rex 293 cell line SC cells having increased expression of BCL6 protein. The assay is described as follows: Cellular growth inhibition assay, T-Rex 293 SC cells with doxycycline (CellTiter-Glo). The assay is classed as cell-based. The settings on record: T-Rex 293 SC cells with 10 ng/mL doxycycline (increased BCL6 expression), 72 hours, CellTiter-Glo 2.0. A general note: ATP-based viability assays read luminescence as a measure of living cells.

The term IC50 denotes the concentration needed to halve the response being measured. Read a high IC50 as lower potency. By GI50 is commonly meant the concentration at which growth is held to half of that of the control. What is called Kd is the equilibrium constant for the complex coming apart. A lower Kd goes with higher affinity.

Regarding `CNC(=O)COc1cc2cc(Nc3nc(N4CCC(CN5CCN(CCN(C)[C@H]6C[C@H](Oc7ccc(C(C)(C)O)cc7-c7cn(C)c(=O)c8[nH]ccc78)C6)CC5)CC4)ncc3Cl)ccc2n(C)c1=O` [Compound I-20], the IC50 is 5 to 50 nM in assay [1] and below 5 nM in assay [3]. Further, the GI50 with Su-DHL-4 cell line was below 500 nM; in assay [2], 500 to 1500 nM; in the assay with Farage cell line, below 500 nM; in assay [5], below 500 nM. Besides, the Kd in assay [4] lay in the range of 1 to 10 nM.

As to `CNC(=O)COc1cc2cc(Nc3nc(N4CCC(CCN5CCN(CCN(C)[C@H]6C[C@H](Oc7ccc(C(C)(C)O)cc7-c7cn(C)c(=O)c8[nH]ccc78)C6)CC5)CC4)ncc3Cl)ccc2n(C)c1=O` [Compound I-21], the IC50 in assay [1] and in assay [3] was below 5 nM in each case. Further, the 50% growth inhibitory concentration (GI50) was below 500 nM with Su-DHL-4 cell line, 1500 to 3000 nM in assay [2], below 500 nM in the assay with Farage cell line and below 500 nM in assay [5]. This compound yielded a Kd in assay [4] of 1 to 10 nM.

In the case of `CNC(=O)COc1cc2cc(Nc3nc(N4CCC(CC5CN(CC6CC(Oc7ccc(C(C)(C)O)cc7-c7cn(C)c(=O)c8[nH]ccc78)C6)C5)CC4)ncc3Cl)ccc2n(C)c1=O` (stereo not shown) [Compound I-22, 2-[[6-[[5-chloro-2-[4-[[1-[[3-[4-(1-hydroxy-1-methyl-ethyl)-2-(6-methyl-7-oxo-1H-pyrrolo[2,3-c]pyridin-4-yl)phenoxy]cyclobutyl]methyl]azetidin-3-yl]methyl]-1-piperidyl]pyrimidin-4-yl]amino]-1-methyl-2-oxo-3-quinolyl]oxy]-N-methyl-acetamide], the IC50 in assay [1] and in assay [3] was below 5 nM in each case. Also, the 50% growth inhibitory concentration (GI50) (with Su-DHL-4 cell line; in assay [2]; in the assay on Farage cell line; in assay [5]) was below 500 nM throughout. For the same compound, the Kd in assay [4] is 1 to 10 nM.

For `CNC(=O)COc1cc2cc(Nc3nc(N4CCN(CCN5CCN(CCOc6cccc(Oc7ccc(C(C)(C)O)cc7-c7cn(C)c(=O)c8[nH]ccc78)c6)CC5)CC4)ncc3Cl)ccc2n(C)c1=O` [Compound I-23, 2-[[6-[[5-chloro-2-[4-[2-[4-[2-[3-[4-(1-hydroxy-1-methyl-ethyl)-2-(6-methyl-7-oxo-1H-pyrrolo[2,3-c]pyridin-4-yl)phenoxy]phenoxy]ethyl]piperazin-1-yl]ethyl]piperazin-1-yl]pyrimidin-4-yl]amino]-1-methyl-2-oxo-3-quinolyl]oxy]-N-methyl-acetamide], the half-inhibitory concentration (IC50) in assay [1] and in assay [3] was below 5 nM in each case. Further, the GI50 was below 500 nM with Su-DHL-4 cell line, 500 to 1500 nM in assay [2], below 500 nM with Farage cell line and below 500 nM in assay [5]. The dissociation constant Kd in assay [4] is 1 to 10 nM.

As to `CNC(=O)COc1cc2cc(Nc3nc(N4CCC(CCN5CCN(CCOc6cccc(Oc7ccc(C(C)(C)O)cc7-c7cn(C)c(=O)c8[nH]ccc78)c6)CC5)CC4)ncc3Cl)ccc2n(C)c1=O` [Compound I-24], the half-maximal inhibitory concentration (IC50) in assay [1] is 50 to 500 nM; in assay [3] it was below 5 nM. The concentration for 50% growth inhibition (GI50) (in the assay on Su-DHL-4 cell line; in assay [2]; in the assay on Farage cell line; in assay [5]) was below 500 nM throughout. The compound also registered an equilibrium dissociation constant (Kd) in assay [4] of 1 to 10 nM.

For `CNC(=O)COc1cc2cc(Nc3nc(N4CCC5(CC4)CC(Oc4ccc(C6=N[C@@H](Cc7ncco7)c7nnc(C)n7-c7sc(C)c(C)c76)cc4)C5)ncc3Cl)ccc2n(C)c1=O` [Compound I-25, 2-[[6-[[5-chloro-2-[2-[4-[(9S)-4,5,13-trimethyl-9-(oxazol-2-ylmethyl)-3-thia-1,8,11,12-tetrazatricyclo[8.3.0.02,6]trideca-2 (6),4,7,10,12-pentaen-7-yl]phenoxy]-7-azaspiro[3.5]nonan-7-yl]pyrimidin-4-yl]amino]-1-methyl-2-oxo-3-quinolyl]oxy]-N-methyl-acetamide], the values for the IC50 in assay [1] and in assay [3] were 5 to 50 nM and below 5 nM, respectively. The concentration for 50% growth inhibition (GI50) (in the assay on Su-DHL-4 cell line; in assay [2]; with Farage cell line; in assay [5]) was below 500 nM each time. In assay [4], the equilibrium dissociation constant (Kd) is above 100 nM.

In the case of `CNC(=O)COc1cc2cc(Nc3nc(N4CCCC5(CC(Oc6ccc(C7=N[C@@H](Cc8ncco8)c8nnc(C)n8-c8sc(C)c(C)c87)cc6)C5)C4)ncc3Cl)ccc2n(C)c1=O` (stereo partly shown) [Compound I-27], the half-maximal inhibitory concentration (IC50) in assay [1] is 5 to 50 nM; in assay [3] it was below 5 nM. For the same compound, the concentration for 50% growth inhibition (GI50) (in the assay with Su-DHL-4 cell line; in assay [2]; in the assay on Farage cell line; in assay [5]) was below 500 nM each time. In addition, the Kd in assay [4] was above 100 nM.
